From US20240417405A1, “Substituted Spiro Derivatives” (Janssen Pharmaceutica NV, priority 2021, published 2024)

Legend:
[1] = tested on: MOLM14 cells; assay: Proliferation assay, spheroid-like growth, MOLM14 (MLL-AF9 rearranged); type: cell-based, human; conditions: Homo sapiens, MOLM-14, 192 h, 8 days, confluence as measure of spheroid size, read-out: spheroid assay_OneTime MOLM14 IC50
Method: The anti-proliferative effect of menin/MLL protein/protein interaction inhibitor test compounds was assessed in human leukemia cell lines. The cell line MOLM14 harbors a MLL translocation and expresses the MLL fusion proteins MLL-AF9, respectively, as well as the wildtype protein from the second allele. […] KO-52 was used as a control cell line containing two MLL (KMT2A) wildtype alleles in order to exclude compounds that display general cytotoxic effects.
MOLM14 cells were cultured in RPMI-1640 (Sigma Aldrich) supplemented with 10% heat-inactivated fetal bovine serum (HyClone), 2 mM L-glutamine (Sigma Aldrich) and 50 μg/ml gentamycin (Gibco). KO-52 cell lines were propagated in alpha-MEM (Sigma Aldrich) supplemented with 20% heat-inactivated fetal bovine serum (HyClone), 2 mM L-glutamine (Sigma Aldrich) and 50 μg/ml gentamycin (Gibco).
In order to assess the anti-proliferative effects, 200 MOLM14 cells, or 300 KO-52 cells were seeded in 200 μl media per well in 96-well round bottom, ultra-low attachment plates (Costar, catalogue number 7007). Cell seeding numbers were chosen based on growth curves to ensure linear growth throughout the experiment. Test compounds were added at different concentrations and the DMSO content was normalized to 0.3%. Cells were incubated for 8 days at 37° C. and 5% CO2. Spheroid like growth was measured in real-time by live-cell imaging (IncuCyteZOOM, Essenbio, 4× objective) acquiring images at day 8. Confluence (%) as a measure of spheroid size was determined using an integrated analysis tool.
In order to determine the effect of the test compounds over time, the confluence in each well as a measure of spheroid size, was calculated. Confluence of the highest dose of a reference compound was used as baseline for the LC (Low control) and the confluence of DMSO treated cells was used as 0% cytotoxicity (High Control, HC).
Absolute IC50 values were calculated as percent change in confluence as follows:
LC=Low Control: cells treated with e.g. 1 μM of the cytotoxic agent staurosporin, or e.g. cells treated with a high concentration of an alternative reference compound
GraphPad Prism (version 7.00) was used to calculate the IC50. Dose-response equation was used for the plot of % Effect vs Log 10 compound concentration with a variable slope and fixing the maximum to 100% and the minimum to 0%.

[2] = molecular target: T1, menin/MLL (terbium chelate-labeled menin, FITC-MBM1 peptide) (Homo sapiens, UniProt O00255, T541A); assay: Menin/MLL homogenous time-resolved fluorescence (HTRF) assay; type: binding; conditions: 30 min incubation
T1 construct: Menin (a.a 1-610-6xhis tag)
T1 sequence (O00255 with tags, fused parts or gaps T541A): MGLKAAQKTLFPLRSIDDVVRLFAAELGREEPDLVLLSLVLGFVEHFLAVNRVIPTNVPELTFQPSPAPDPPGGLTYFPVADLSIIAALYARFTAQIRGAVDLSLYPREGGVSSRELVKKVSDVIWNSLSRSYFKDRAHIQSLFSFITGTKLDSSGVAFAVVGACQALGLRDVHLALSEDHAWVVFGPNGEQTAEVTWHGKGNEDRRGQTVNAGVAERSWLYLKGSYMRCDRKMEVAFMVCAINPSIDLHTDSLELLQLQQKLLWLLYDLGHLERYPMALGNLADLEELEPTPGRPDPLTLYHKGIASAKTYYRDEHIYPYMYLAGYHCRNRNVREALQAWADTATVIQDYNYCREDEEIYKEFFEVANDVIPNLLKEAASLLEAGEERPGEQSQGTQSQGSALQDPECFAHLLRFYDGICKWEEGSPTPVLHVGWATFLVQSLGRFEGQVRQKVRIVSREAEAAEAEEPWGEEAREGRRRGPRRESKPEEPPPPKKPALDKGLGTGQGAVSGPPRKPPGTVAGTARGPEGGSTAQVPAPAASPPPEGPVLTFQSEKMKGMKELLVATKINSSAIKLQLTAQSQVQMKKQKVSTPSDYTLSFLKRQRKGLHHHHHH
Method: 1) Menin/MLL Homogenous Time-Resolved Fluorescence (HTRF) Assay
To an untreated, white 384-well microtiter plate was added 40 nL 200× test compound in DMSO and 4 μL 2× terbium chelate-labeled menin (vide infra for preparation) in assay buffer (40 mM Tris.HCl, pH 7.5, 50 mM NaCl, 1 mM DTT (dithiothreitol) and 0.05% Pluronic F-127). After incubation of test compound and terbium chelate-labeled menin for 30 min at ambient temperature, 4 μL 2× FITC-MBM1 peptide (FITC-β-alanine-SARWRFPARPGT-NH2 (SEQ ID NO: 3)) (“FITC” means fluorescein isothiocyanate) in assay buffer was added, the microtiter plate centrifuged at 1000 rpm for 1 min and the assay mixtures incubated for 15 min at ambient temperature. The relative amount of menin FITC-MBM1 complex present in an assay mixture is determined by measuring the homogenous time-resolved fluorescence (HTRF) of the terbium/FITC donor/acceptor fluorophore pair using an EnVision microplate reader (ex. 337 nm/terbium em. 490 nm/FITC em. 520 nm) at ambient temperature. The degree of fluorescence resonance energy transfer (the HTRF value) is expressed as the ratio of the fluorescence emission intensities of the FITC and terbium fluorophores (F^em 520 nm/F^em 490 nm). The final concentrations of reagents in the binding assay are 200 pM terbium chelate-labeled menin, 75 nM FITC-MBM1 peptide and 0.5% DMSO in assay buffer. Dose-response titrations of test compounds are conducted using an 11 point, four-fold serial dilution scheme, starting typically at 10 μM.
Compound potencies were determined by first calculating % inhibition at each compound concentration according to equation 1:
% inhibition=((HC−LC)−(HTRF^compound−LC))/(HC−LC))*100 (Eqn 1)
Where LC and HC are the HTRF values of the assay in the presence or absence of a saturating concentration of a compound that competes with FITC-MBM1 for binding to menin, and HTRF^compound is the measured HTRF value in the presence of the test compound. HC and LC HTRF values represent an average of at least 10 replicates per plate.
% inhibition=Bottom+(Top−Bottom)/(1+10^((logIC50−log[cmpd])*h)) (Eqn 2)
Where Bottom and Top are the lower and upper asymptotes of the dose-response curve, respectively, IC50 is the concentration of compound that yields 50% inhibition of signal and h is the Hill coefficient. IC50 values below 0.1 nM in the HTRF assay were reported as 0.1 nM in the Table below (detection limit).
Preparation of Terbium cryptate labeling of Menin: Menin (a.a 1-610-6xhis tag (“6xhis tag” disclosed as SEQ ID NO: 2), 2.3 mg/mL in 20 mM Hepes (2-[4-(2-Hydroxyethyl)-1-piperazinyl]ethane sulfonic acid), 80 mM NaCl, 5 mM DTT (Dithiothreitol), pH 7.5) was labeled with terbium cryptate as follows. 200 μg of Menin was buffer exchanged into 1× Hepes buffer. 6.67 μM Menin was incubated with 8-fold molar excess NHS (N-hydroxysuccinimide)-terbium cryptate for 40 minutes at room temperature. Half of the labeled protein was purified away from free label by running the reaction over a NAP5 column with elution buffer (0.1 M Hepes, pH 7+0.1% BSA (bovine serum albumin)). The other half was eluted with 0.1 M phosphate buffered saline (PBS), pH7. 400 μl of eluent was collected for each, aliquoted and frozen at −80° C. The final concentration of terbium-labeled Menin protein was 115 μg/mL in Hepes buffer and 85 μg/mL in PBS buffer, respectively.

CC(C)C([C@H]1C[C@@H](N2CC[C@@](C)(O)C2)C1)N1CC2(CCN(c3ncnnc3Oc3ccc(F)cc3-c3cnccc3C3CC3)C2)C1 (mixture of isomers) [Compound 137]
IC50 [1]: 7 nM
IC50 [2]: 0.2 nM

CC(C)[C@H]([C@H]1C[C@@H](N2CCC(C(=O)N(C)C)C2)C1)N1CC2(CCN(c3ncnnc3Oc3ccc(F)cc3-c3cncnc3C3CC3)C2)C1 (mixture of isomers) [Compound 210]
IC50 [1]: 5 nM
IC50 [2]: 0.1 nM

COC1(C)CCN([C@H]2C[C@@H]([C@H](C(C)C)N3CC4(CCN(c5ncnnc5Oc5ccc(F)cc5-c5nnccc5C5CC5)C4)C3)C2)C1 (mixture of isomers) [Compound 275]
IC50 [1]: 7 nM
IC50 [2]: 0.1 nM

Cc1ncc(-c2cc(F)ccc2Oc2nncnc2N2CCC3(C2)CN([C@@H](C(C)C)[C@H]2C[C@@H](N4CC5COCC5C4)C2)C3)c(C2CC2)n1 (mixture of isomers) [Compound 379]
IC50 [1]: 1.9 nM
IC50 [2]: 0.11 nM

Cc1nnc(C2CC2)n1-c1cc(F)ccc1Oc1nncnc1N1CCC2(C1)CN([C@H](C(C)C)C1CC(N(C)C)C1)C2 (mixture of isomers) [Compound 502, N,N-dimethyl-3-[(1R)-1-[7-[6-[2-(3-cyclopropyl-5-methyl-1,2,4-triazol-4-yl)-4-fluoro-phenoxy]-1,2,4-triazin-5-yl]-2,7-diazaspiro[3.4]octan-2-yl]-2-methyl-propyl]cyclobutanamine]
IC50 [1]: 32 nM
IC50 [2]: 0.12 nM

CC(C)[C@H]([C@H]1C[C@@H](NC2(C)CCS(=O)(=O)CC2)C1)N1CC2(CCN(c3ncnnc3Oc3ccc(F)cc3-c3cncnc3C3CC3)C2)C1 (single isomer, unassigned) [Compound 44]
IC50 [1]: 27 nM
IC50 [2]: 0.1 nM

CC(=O)N1CCN([C@H]2C[C@H]([C@H](C(C)C)N3CC4(CCN(c5ncnnc5Oc5ccc(F)cc5-c5cnncc5C5CC5)C4)C3)C2)CC1 (single isomer, unassigned) [Compound 105]
IC50 [2]: 1 nM

CC(C)[C@H]([C@H]1C[C@@H](N2CC3(CCC(=O)N3C)C2)C1)N1CC2(CCN(c3ncnnc3Oc3ccc(F)cc3-c3cncnc3C3CC3)C2)C1 (single isomer, unassigned) [Compound 316]
IC50 [2]: 4.9 nM

CC(C)[C@@H](C1CN(CC2COC2)C1)N1CC2(CCN(c3ncnnc3Oc3ccc(F)cc3-c3cncnc3C3CC3)C2)C1 (single isomer, unassigned) [Compound 353]
IC50 [2]: 0.5 nM

C[C@@H]([C@H]1C[C@@H](NC(=O)C2CC2)C1)N1CC2(CCN(c3ncnnc3Oc3ccc(F)cc3-c3cncnc3C3CC3)C2)C1 (single isomer, unassigned) [Compound 444]
IC50 [2]: 0.16 nM

C[C@@H]([C@H]1C[C@@H](NC(=O)C2(F)CC2)C1)N1CC2(CCN(c3ncnnc3Oc3ccc(F)cc3-c3cncnc3C3CC3)C2)C1 (single isomer, unassigned) [Compound 456]
IC50 [2]: 0.53 nM

CNC(=O)c1nccc(N[C@H]2C[C@@H]([C@@H](C(C)C)N3CC4(CCN(c5ncnnc5Oc5ccc(F)cc5-c5cncnc5C5CC5)C4)C3)C2)n1 (single isomer, unassigned) [Compound 457]
IC50 [2]: 0.29 nM

CNC(=O)c1nc(N[C@H]2C[C@@H](C(C(C)C)N3CC4(CCN(c5ncnnc5Oc5ccc(F)cc5-c5cncnc5C5CC5)C4)C3)C2)oc1C (single isomer, unassigned) [Compound 459]
IC50 [2]: 0.06 nM

COC(=O)c1nccc(N[C@H]2C[C@@H](C(C(C)C)N3CC4(CCN(c5ncnnc5Oc5ccc(F)cc5-c5cncnc5C5CC5)C4)C3)C2)n1 (single isomer, unassigned) [Compound 489]
IC50 [2]: 0.22 nM

Cc1noc(C2CC2)c1-c1cc(F)ccc1Oc1nncnc1N1CCC2(C1)CN([C@H](C(C)C)[C@H]1C[C@@H](N(C)C)C1)C2 (single isomer, unassigned) [Compound 503]
IC50 [2]: 0.18 nM

CC(=O)N[C@H]1C[C@@H](C(C(C)C)N2CC3(CCN(c4ncnnc4Oc4ccc(F)cc4-c4ccnnc4C4CC4)C3)C2)C1 (stereo partly shown) [Compound 182]
IC50 [2]: 0.6 nM

CC(C)C(C1CCN(CC2COC2)CC1)N1CC2(CCN(c3ncnnc3Oc3ccc(F)cc3-c3nccnc3C3CC3)C2)C1 (stereo not shown) [Compound 202]
IC50 [2]: 0.7 nM

Cc1noc(C2CC2)c1-c1cc(F)ccc1Oc1nncnc1N1CCC2(C1)CN([C@H](C(C)C)[C@H]1C[C@@H](NC(=O)OC(C)(C)C)C1)C2 [Compound 504, tert-butyl N-[3-[(1R)-1-[7-[6-[2-(5-cyclopropyl-3-methyl-isoxazol-4-yl)-4-fluoro-phenoxy]-1,2,4-triazin-5-yl]-2,7-diazaspiro[3.4]octan-2-yl]-2-methyl-propyl]cyclobutyl]carbamate]
IC50 [2]: 0.58 nM

Cc1noc(C2CC2)c1-c1cc(F)ccc1Oc1nncnc1N1CCC2(C1)CN([C@H](C(C)C)C1CC(NC(=O)OC(C)(C)C)C1)C2 (stereo partly drawn) [Compound 505, tert-butyl N-[3-[(1R)-1-[7-[6-[2-(5-cyclopropyl-3-methyl-isoxazol-4-yl)-4-fluoro-phenoxy]-1,2,4-triazin-5-yl]-2,7-diazaspiro[3.4]octan-2-yl]-2-methyl-propyl]cyclobutyl]carbamate]
IC50 [2]: 0.54 nM
